Columns and labels:
[1] = system: human adrenal gland section expressing aldosterone-producing adenoma; test: In vitro autoradiography using human adrenal adenoma; format: binding; settings: section of FIG. 17(a)
How it was run: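 Frozen 7-μm sections of human adrenal bearing aldosterone-producing adenoma were immersed 10 min in radioligand (5-33 kBq/mL) in PBS with 1% fatty-acid-free BSA, washed, then exposed to imaging plates for 16-20 h. Equal-area ROI PSL in adenoma (B2) versus normal cortex (B1) gave B2/B1, corrected for nuclide half-life, added activity and exposure time.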

[2] = In vivo kinetics experiment (radioactivity distribution); parameters: species or system Wistar male rat; settings: rat, caudal vein
How it was run: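 Male Wistar rats (9 weeks) under isoflurane received approximately 1 to 3.7 MBq radiotracer in saline with 1 w/v % ascorbic acid by tail-vein injection. At 10, 30 and 60 min, rats were exsanguinated; blood, organs and remaining body weighed and counted, giving % ID/g and adrenal-to-tissue ratios.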

[3] = Plasma stability evaluation (TLC analysis); format: in vitro ADME; settings: 37° C., 60 minutes, TLC analysis
How it was run: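 Radiolabelled compounds were incubated in heparin-treated pooled normal human plasma at 37° C for 60 minutes. After methanol deproteinization and centrifugation, stability was assessed by TLC under the conditions used for each compound's synthesis.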

Q: Which B2/B1 accumulation ratio [1] does the source give for “Methyl 1-[4-(1-cyclopropyl-6-[^123I]iodo-1H-imidazobenzo-2-yl)-3-pyridinylmethyl)]-1H-imidazolecarboxylate [[^123I] 601]” here?
A: 1.05

Q: What about the “B2 (PSL value, aldosterone-producing adenoma)” value ([1]; site 71a) of the same substance?
A: 3201

Q: What about the “B1 (PSL value, normal adrenal cortex)” value ([1]; site 72a) of the same substance?
A: 3040

Q: And the “Adrenal gland/blood ratio of radioactivity accumulation” value (shortened to “Adrenal gland/blood ratio”) ([2]; 10 min after administration)?
A: 49.76 ± 8.04

Q: What about the “Adrenal gland/fat ratio of radioactivity accumulation” value (shortened to “Adrenal gland/fat ratio”) ([2]; 10 min after administration) of the same substance?
A: 48.18 ± 26.02

Q: And the “Adrenal gland/kidney ratio of radioactivity accumulation” value (“Adrenal gland/kidney ratio” for short) ([2]; 10 min after administration)?
A: 11.53 ± 2.04

Q: And the “Adrenal gland/liver ratio of radioactivity accumulation” value (shortened to “Adrenal gland/liver ratio”) ([2]; 10 min after administration)?
A: 3.21 ± 0.44

Q: What about the “Adrenal gland/muscle ratio of radioactivity accumulation” value (shortened to “Adrenal gland/muscle ratio”) ([2]; 10 min after administration) of the same substance?
A: 51.74 ± 11.28

Q: What about the “Adrenal gland/small intestine ratio of radioactivity accumulation” value (“Adrenal gland/small intestine ratio” below) ([2]; 10 min after administration) of the same substance?
A: 6.93 ± 2.04

Q: What about the “Radioactivity distribution Adrenal gland” value ([2]; 10 min after administration) of the same substance?
A: 13.40 ± 2.41 % ID/g

Q: What about the “Radioactivity distribution Bladder (including urine)” value (shortened to “Radioactivity distribution Bladder”) ([2]; 10 min after administration) of the same substance?
A: 0.65 ± 0.26 % ID/g

Q: And the “Radioactivity distribution Blood” value ([2]; 10 min after administration)?
A: 0.27 ± 0.01 % ID/g

Q: And the “Radioactivity distribution Fat” value ([2]; 10 min after administration)?
A: 0.34 ± 0.16 % ID/g

Q: What about the “Radioactivity distribution Heart” value ([2]; 10 min after administration) of the same substance?
A: 0.61 ± 0.03 % ID/g

Q: And the “Radioactivity distribution Kidney” value ([2]; 10 min after administration)?
A: 1.16 ± 0.02 % ID/g

Q: And the “Radioactivity distribution Large intestine” value ([2]; 10 min after administration)?
A: 0.14 ± 0.01 % ID/g

Q: What about the “Radioactivity distribution Liver” value ([2]; 10 min after administration) of the same substance?
A: 4.15 ± 0.27 % ID/g

Q: And the “Radioactivity distribution Lung” value ([2]; 10 min after administration)?
A: 0.54 ± 0.01 % ID/g

Q: And the “Radioactivity distribution Muscle (lower limbs)” value ([2]; 10 min after administration)?
A: 0.26 ± 0.02 % ID/g

Q: And the “Radioactivity distribution Remaining whole body” value ([2]; 10 min after administration)?
A: 0.30 ± 0.01 % ID/g

Q: And the “Radioactivity distribution Small intestine” value ([2]; 10 min after administration)?
A: 1.99 ± 0.27 % ID/g

Q: What about the “Radioactivity distribution Spleen” value ([2]; 10 min after administration) of the same substance?
A: 0.51 ± 0.02 % ID/g

Q: And the “Radioactivity distribution Stomach” value ([2]; 10 min after administration)?
A: 0.83 ± 0.25 % ID/g

Q: What about the “Radioactivity distribution Testis” value ([2]; 10 min after administration) of the same substance?
A: 0.32 ± 0.01 % ID/g

Q: And the “Radioactivity distribution Thyroid gland” value ([2]; 10 min after administration)?
A: 0.62 ± 0.09 % ID/g

Q: What about the “Radioactivity distribution Whole brain” value ([2]; 10 min after administration) of the same substance?
A: 0.15 ± 0.01 % ID/g

Q: What about the “Adrenal gland/blood ratio” value ([2]; 30 min after administration) of the same substance?
A: 88.31 ± 19.36

Q: What about the “Adrenal gland/fat ratio” value ([2]; 30 min after administration) of the same substance?
A: 34.33 ± 3.72

Q: What about the “Adrenal gland/kidney ratio” value ([2]; 30 min after administration) of the same substance?
A: 28.94 ± 22.29

Q: What about the “Adrenal gland/liver ratio” value ([2]; 30 min after administration) of the same substance?
A: 6.49 ± 1.59

Q: And the “Adrenal gland/muscle ratio” value ([2]; 30 min after administration)?
A: 72.90 ± 18.29

Q: What about the “Adrenal gland/small intestine ratio” value ([2]; 30 min after administration) of the same substance?
A: 3.30 ± 0.96

Q: And the “Radioactivity distribution Adrenal gland” value ([2]; 30 min after administration)?
A: 17.21 ± 1.46 % ID/g

Q: What about the “Radioactivity distribution Bladder” value ([2]; 30 min after administration) of the same substance?
A: 0.41 ± 0.03 % ID/g

Q: And the “Radioactivity distribution Blood” value ([2]; 30 min after administration)?
A: 0.20 ± 0.03 % ID/g

Q: What about the “Radioactivity distribution Fat” value ([2]; 30 min after administration) of the same substance?
A: 0.50 ± 0.03 % ID/g

Q: And the “Radioactivity distribution Heart” value ([2]; 30 min after administration)?
A: 0.42 ± 0.08 % ID/g

Q: And the “Radioactivity distribution Kidney” value ([2]; 30 min after administration)?
A: 0.80 ± 0.39 % ID/g

Q: What about the “Radioactivity distribution Large intestine” value ([2]; 30 min after administration) of the same substance?
A: 0.15 ± 0.01 % ID/g

Q: What about the “Radioactivity distribution Liver” value ([2]; 30 min after administration) of the same substance?
A: 2.71 ± 0.39 % ID/g

Q: What about the “Radioactivity distribution Lung” value ([2]; 30 min after administration) of the same substance?
A: 0.43 ± 0.07 % ID/g

Q: And the “Radioactivity distribution Muscle (lower limbs)” value ([2]; 30 min after administration)?
A: 0.24 ± 0.04 % ID/g

Q: What about the “Radioactivity distribution Remaining whole body” value ([2]; 30 min after administration) of the same substance?
A: 0.24 ± 0.03 % ID/g

Q: And the “Radioactivity distribution Small intestine” value ([2]; 30 min after administration)?
A: 5.54 ± 1.72 % ID/g

Q: And the “Radioactivity distribution Spleen” value ([2]; 30 min after administration)?
A: 0.35 ± 0.07 % ID/g

Q: And the “Radioactivity distribution Stomach” value ([2]; 30 min after administration)?
A: 0.86 ± 0.23 % ID/g

Q: And the “Radioactivity distribution Testis” value ([2]; 30 min after administration)?
A: 0.31 ± 0.05 % ID/g

Q: What about the “Radioactivity distribution Thyroid gland” value ([2]; 30 min after administration) of the same substance?
A: 0.69 ± 0.26 % ID/g

Q: And the “Radioactivity distribution Whole brain” value ([2]; 30 min after administration)?
A: 0.11 ± 0.02 % ID/g

Q: What about the “Adrenal gland/blood ratio” value ([2]; 60 min after administration) of the same substance?
A: 73.52 ± 21.70

Q: What about the “Adrenal gland/fat ratio” value ([2]; 60 min after administration) of the same substance?
A: 18.31 ± 9.45

Q: What about the “Adrenal gland/kidney ratio” value ([2]; 60 min after administration) of the same substance?
A: 10.42 ± 4.49

Q: And the “Adrenal gland/liver ratio” value ([2]; 60 min after administration)?
A: 4.79 ± 1.48

Q: And the “Adrenal gland/muscle ratio” value ([2]; 60 min after administration)?
A: 63.30 ± 21.65

Q: What about the “Adrenal gland/small intestine ratio” value ([2]; 60 min after administration) of the same substance?
A: 0.99 ± 0.55

Q: And the “Radioactivity distribution Adrenal gland” value ([2]; 60 min after administration)?
A: 8.87 ± 3.98 % ID/g

Q: What about the “Radioactivity distribution Bladder” value ([2]; 60 min after administration) of the same substance?
A: 1.17 ± 0.51 % ID/g

Q: What about the “Radioactivity distribution Blood” value ([2]; 60 min after administration) of the same substance?
A: 0.12 ± 0.02 % ID/g

Q: And the “Radioactivity distribution Fat” value ([2]; 60 min after administration)?
A: 0.50 ± 0.09 % ID/g

Q: And the “Radioactivity distribution Heart” value ([2]; 60 min after administration)?
A: 0.26 ± 0.05 % ID/g

Q: What about the “Radioactivity distribution Kidney” value ([2]; 60 min after administration) of the same substance?
A: 0.84 ± 0.09 % ID/g

Q: What about the “Radioactivity distribution Large intestine” value ([2]; 60 min after administration) of the same substance?
A: 0.14 ± 0.02 % ID/g

Q: And the “Radioactivity distribution Liver” value ([2]; 60 min after administration)?
A: 1.80 ± 0.26 % ID/g

Q: What about the “Radioactivity distribution Lung” value ([2]; 60 min after administration) of the same substance?
A: 0.26 ± 0.03 % ID/g

Q: And the “Radioactivity distribution Muscle (lower limbs)” value ([2]; 60 min after administration)?
A: 0.14 ± 0.02 % ID/g

Q: What about the “Radioactivity distribution Remaining whole body” value ([2]; 60 min after administration) of the same substance?
A: 0.15 ± 0.01 % ID/g

Q: And the “Radioactivity distribution Small intestine” value ([2]; 60 min after administration)?
A: 9.33 ± 1.02 % ID/g

Q: What about the “Radioactivity distribution Spleen” value ([2]; 60 min after administration) of the same substance?
A: 0.20 ± 0.03 % ID/g

Q: And the “Radioactivity distribution Stomach” value ([2]; 60 min after administration)?
A: 0.50 ± 0.29 % ID/g

Q: What about the “Radioactivity distribution Testis” value ([2]; 60 min after administration) of the same substance?
A: 0.22 ± 0.05 % ID/g

Q: And the “Radioactivity distribution Thyroid gland” value ([2]; 60 min after administration)?
A: 0.93 ± 0.47 % ID/g

Q: What about the “Radioactivity distribution Whole brain” value ([2]; 60 min after administration) of the same substance?
A: 0.10 ± 0.04 % ID/g

Q: What about the “Radiochemical purity after incubation in human plasma” value [3] of the same substance?
A: 98%

— patent US10358434B2, “2-(3-pyridinyl)-1H-benzimidazole derivative compound and medicament containing same” (NIHON MEDI-PHYSICS CO., LTD., priority 2014, dated 2019)
